What was measured:
[1] = test system: TM4SF5-expressing cells (SNU449T7); test: 3D sphere growth/proliferation; format: cell-based, human; details: for survival/proliferation of the spheres: given concentrations on the 0, 3, 6, and 9th days, observed 10th day (FIG. 12b-c); for degree of cell proliferation (spheres): 2.5 µM on the 0 and 3rd days, observed 6th day (FIG. 5b); for cell proliferation inhibitory effect: 0.5 or 2.5 µM (FIG. 10a, b), comparison among drugs
Method: TM4SF5-non-expressing cells (SNU449Cp) and TM4SF5-expressing cells (SNU449T7) of the same number (200 cells/well or 1000 cells/well) were added per well into Costar Ultra-Low Attachment Multiple Well Plates (CORNING), and were then treated with vehicle (DMSO) or drugs at various concentrations and cultured in a cell incubator under conditions of 37°C and 5% CO2. After repeatedly treating with the same concentrations of drugs every few days at regular intervals as indicated from the date of cell culture, the proliferation of the cells (spheres) was observed and photographed using an optical microscope on the last day of observation.
The drugs treated were the positive control drug TSAHC or the ST-1-025 isoxazole compound at the given concentrations. From the time of starting culture (0 day), (FIG. 3a) in the case of 2D culture, the number of cells was measured after treating with the drug every 24 hours, or (FIG. 3b) in a 3D environment, the proliferation of cells (spheres) was observed and photographed with an optical microscope on the 5th and 7th days after a single drug treatment at the start of culture. […]

[2] = test system: TM4SF5-expressing cells (SNU449T7); test: Western blotting for signaling factors whose phosphorylation increases in a TM4SF5-expression dependent manner; format: cell-based, human; details: for phosphorylation of FAK, STAT3, c-Src, S6K1, Akt, and p27 / phosphorylation of FAK, c-Src, STAT3, p27, S6K1, and AKT: given concentrations; for phosphorylation of FAK, c-Src, STAT3, p27, S6K1, AKT, and STAT5: 24 hours (FIG. 9a-b)
Method: Cell extracts were obtained from cells grown to a density of 70-80% without any treatment, or from cells treated with vehicle DMSO or drugs at the given concentrations for 24 hours. For the extract of hepatocytes or liver cancer cells, a lysis buffer (150 mM NaCl, 1% NP-40, 50 mM Tris-HCl, 0.25% sodium deoxycholate, pH 7.4) including a protease inhibitor cocktail (GenDEPOT) was used. In addition, after washing animal liver tissue twice with PBS, SDS, Na3VO4, and protease inhibitor cocktails (GenDEPOT) were added to a lysis buffer [50 mM Tris-HCl, pH 7.4, 1% NP40, 0.25% sodium deoxycholate, 150 mM NaCl, 1 mM EDTA (based on 500 ml)], followed by treatment at 4°C for 15 minutes. After centrifugation at 13,000 rpm at 4°C for 30 minutes, only the supernatant was transferred to a new microcentrifuge tube. After quantification using BCA reagent (Thermo Scientific), a 4 × sample buffer [100% glycerol 4 ml, Tris-HCl, pH 6.8, 2.4 ml, SDS 0.8 g, Bromophenol blue 4 mg, betamercaptoethanol 0.4 ml, H2O 3.1 ml (based on 10 ml)] was added, followed by boiling at 100°C for 5 minutes. After performing SDS-PAGE electrophoresis with the above samples and transferring them to Nitrocellulose Membranes Protran™ nitrocellulose membranes (Whatman), pre-treatment was performed with 5% skim milk for 1 hour. After pre-treatment, primary antibodies of p-FAK(Y861) (SC-16663), p-FAK(Y577) (SC-16665), c-Src (SC-8056), STAT3 (SC-8019), p-AKT 1/2/3(S473) (SC-7985), STATS (SC-835), Laminin γ2 (SC-393225), COL1A1 (SC-28657), CCL5(RANTES) (SC-514019) CCL20(MIP-3α) (SC-517441), SIRT1 (SC-74465), ChREBP (SC-515922), SREBP1 (SC-366513), DGAT1 (SC-271934), DGAT2 (SC-293211), MICA/B (SC-137242), SLAMF7 (SC-390840), α-tublin (SC-5286), β-actin (SC-47778), FUCA (SC-365496) (the above from Santa Cruz Biotech, USA), p-FAK(Y397) (cat # 611723), FAK (cat # 610088), p27 (cat # 610242) (the above from BD Transduction, USA), p-FAK(Y925) (#3284) p-c-Src(Y416) (#2101), p-STAT3(Y705) (#9145), p70S6K1 (#9202), p-p70S6K1(T389) (#9205), p-STAT5(Y694) (#9314), ACC (#3676), FASN (#3189), CPT1A (#12252), p-ACC(S79) (#11818), HA (#3724), PD-L1 (#13684), PD-1 (#86163), p-ERK1/2(T202/Y204) (#9101s), ERK1/2 (#9102s) (the above from Cell Signaling Tech., USA), pS10p27(S10) (ab62364), human SLAMF6 (ab224201), TIGIT (ab233404), CD34 (ab81289) (the above from Abcam, UK), mouse SLAMF6 (PA5-87823), NKG2D (PA5-102038) (the above from Thermofisher, USA), α-SMA (Sigma Aldrich, A5228), CCL2 (Invitrogen, MA5-17040), and CD155(PVR) (Biolegend, 337601), HA (Biolegend, USA), Strep-HRP(horse-radish peroxidase), StrepMAB-HRP (IBA, USA), AFP (FineTest, FNab00203) were reacted at 4°C for 15 hours. The next day, secondary antibodies were reacted, and development was performed on X-ray film using ECL (Pierce, USA). Anti-TM4SF5C-ter (epitope region of RKKQDTPH^197) and anti-TM4SF5EC2 (CLMNGEWGYHFEDTAGA^130) were custom-made at a professional antibody production company (Pro-Sci, Poway, CA, USA).
Cell extracts were obtained before and after treating TM4SF5-non-expressing cells (SNU449Cp) and TM4SF5-expressing cells (SNU449T7) with ST-1-024 or ST-1-025 drugs at the given concentrations for 24 hours, and Western blotting was performed for signaling factors whose phosphorylation and activity increase in a TM4SF5-expression dependent manner.
(a) Cell extracts were obtained after treating TM4SF5-non-expressing cells (SNU449Cp) and TM4SF5-expressing cells (SNU449T7) with vehicle (DMSO), TSAHC, or isoxazole compounds ST-2-001, ST-2-002, ST-2-003, ST-2-004, ST-2-005, ST-2-006, ST-2-007, ST-2-008, ST-2-009, ST-2-010, or ST-2-011 at a dose of 5 µM (for 24 hours). Using these, Western blotting was performed for signaling factors whose phosphorylation and activity increase in a TM4SF5-expression dependent manner. […]

[3] = single treatment at 5 µM at start of culture, observed 5th and 7th days (FIG. 3b)
[4] = SNU449T7, given concentrations, 24 hours (FIG. 2)
[5] = 0.1 or 1.0 µM, observed 10th day (FIG. 10c)
[6] = 0.5 or 2.5 µM, observed 6th or 10th day (FIG. 10a, b)

`Cc1ccc(C(=O)Nc2ccc(-c3cc(-c4ccc(O)cc4)no3)cc2)cc1` [ST-5-002, N-(4-(3-(4-hydroxyphenyl)isoxazole-5-yl)phenyl)-4-methylbenzamide] was tested, and the “survival/proliferation of the spheres” value [1] was “inhibited”, the phosphorylation inhibitory efficacy ([2]; drug with improved purity (FIG. 12d)) was “maintained and further improved” and the “phosphorylation of FAK, STAT3, c-Src, S6K1, Akt, and p27” value (shortened to “phosphorylation of FAK, STAT3, c-Src”) ([2]; 24 hours (FIG. 12d)) was “inhibited”.
With `CC(=O)Nc1ccc(-c2cc(-c3ccc(O)cc3)no2)cc1` [ST-5-001, N-(4-(3-(4-hydroxyphenyl)isoxazole-5-yl)phenyl)acetamide] the “survival/proliferation of the spheres” value [1] was “inhibited” and the “phosphorylation of FAK, STAT3, c-Src” value ([2]; 24 hours (FIG. 12d)) was “inhibited”.
`COc1ccc(-c2cc(-c3ccc(N)cc3)no2)cc1` [ST-1-025, 4-(5-(4-methoxyphenyl)isoxazole-3-yl)aniline] was tested, and the “degree of sphere proliferation” value ([1]; repeated treatment at given concentrations on the 0, 5, and 6th days, observed 7th day (FIG. 3c)) was “inhibited by ST-1-025 in a concentration-dependent manner, albeit slightly”, the “degree of sphere proliferation” value [1, 3] was “inhibited, albeit slightly” and the “phosphorylation of FAK, c-Src, STAT3, and p27” value [2, 4] was “decreased”.
In the case of `COc1ccc(-c2cc(-c3cccc(NC(C)=O)c3)no2)cc1` [ST-3-011, N-(3-(5-(4-methoxyphenyl)isoxazole-3-yl)phenyl)acetamide], the “degree of three-dimensional cell proliferation” value [1, 5] is reported as “decreased”, the “degree of three-dimensional cell proliferation” value [1, 6] is reported as “inhibited” and the “phosphorylation of FAK, c-Src, STAT3, p27, S6K1, AKT, and STAT5” value (“phosphorylation of FAK, c-Src … and STAT5” for short) ([2]; 5 µM) is reported as “decreased”. The “phosphorylation of FAK, c-Src, STAT3, p27, S6K1, and AKT” value (from here on “phosphorylation of FAK, c-Src … and AKT”) ([2]; 24 hours (FIG. 9c)) was “decreased in a concentration-dependent manner”.
`COc1ccc(-c2cc(-c3ccc(NC(C)=O)cc3)no2)cc1` [ST-2-001, N-(4-(5-(4-methoxyphenyl)isoxazole-3-yl)phenyl)acetamide] was tested, and the “degree of cell proliferation (spheres)” value [1] was “inhibited”, the “cell proliferation inhibitory effect” value [1] was “strong” and the “degree of three-dimensional cell proliferation” value [1, 6] was “inhibited”. For the same compound, the “survival/proliferation of the spheres” value [1] was “inhibited”, the “phosphorylation of FAK, c-Src, STAT3, and p27” value ([2]; 5 µM, 24 hours (FIG. 5a)) was “decreased” and the “phosphorylation of FAK, c-Src … and STAT5” value ([2]; 5 µM) was “decreased”. The “phosphorylation of FAK, c-Src … and AKT” value ([2]; 24 hours (FIG. 5c)) was “decreased in a drug concentration-dependent manner”, the “phosphorylation of FAK, c-Src … and AKT” value ([2]; 24 hours (FIG. 9c)) was “decreased in a concentration-dependent manner” and the “phosphorylation of FAK, STAT3, c-Src” value ([2]; 24 hours (FIG. 12a)) was “inhibited in many cases including STAT3, S6K1, and FAK”. For the same compound, the “phosphorylation of FAK, STAT3, c-Src” value ([2]; 24 hours (FIG. 12d)) was “inhibited”.
In the case of `CC(=O)Nc1ccc(-c2cc(-c3ccc(F)cc3)on2)cc1` [ST-3-006, N-(4-(5-(4-fluorophenyl)isoxazole-3-yl)phenyl)acetamide], the “degree of three-dimensional cell proliferation” value [1, 5] is reported as “decreased”, the “cell proliferation inhibitory effect” value [1] is reported as “strong” and the “degree of three-dimensional cell proliferation” value [1, 6] is reported as “inhibited”. For the same compound, the “phosphorylation of FAK, c-Src … and STAT5” value ([2]; 5 µM) was “decreased” and the “phosphorylation of FAK, c-Src … and AKT” value ([2]; 24 hours (FIG. 9c)) was “decreased in a concentration-dependent manner”.
With `Cc1ccc(S(=O)(=O)Nc2ccc(C(=O)/C=C/c3ccc(O)cc3)cc2)cc1` [TSAHC, 4'-(p-toluenesulfonylamino)-4-hydroxychalcone, reference compound] the “degree of cell proliferation (spheres)” value [1] was “inhibited”, the “degree of sphere proliferation” value [1, 3] was “inhibited, albeit slightly” and the “phosphorylation of FAK, c-Src, STAT3, and p27” value ([2]; 5 µM, 24 hours (FIG. 5a)) was “decreased”. For the same compound, the “phosphorylation of FAK, c-Src, STAT3, and p27” value [2, 4] was “decreased” and the “phosphorylation of FAK, c-Src … and AKT” value ([2]; 24 hours (FIG. 5c)) was “decreased in a drug concentration-dependent manner”.

Reference: patent publication EP4772500A1, “NOVEL ISOXAZOLE COMPOUND AS TM4SF5-SPECIFIC INHIBITOR AND USE THEREOF” (Seoul National University R&DB Foundation, priority 2023, dated 2025)
